# Data: patent publication US9128097B2, “Method and kit for assessing viable cells” (ChemoMetec A/S, priority 2008, dated 2015)
# Columns and labels:
# Drosophila S2 cells = test: NAM/PI staining of Drosophila S2 cells, fluorescence microscopy; type: cell-based, Drosophila melanogaster; settings: S2 cells diluted 10 times in PBS; 10 μg/mL NAM
# Procedure: Materials and Methods. Drosophila S2 cells were grown at 28° C. without shaking in Schneider's Drosophila medium (Invitrogen, #21720) supplemented with 10% heat-inactivated fetal bovine serum (Invitrogen, #10108-165). S2 cells (cell density 1.7×10^7, 99% viable determined using the YC-100 NucleoCounter system with diploid settings following the manufacturer's (ChemoMetec) protocol) were diluted 10 times in PBS and stained with 10 μg/mL NAM (Sigma, #01665). Cells were loaded into a NucleoCassette, containing the DNA stain propidium iodide (PI). The cells were investigated using an Olympus IX50 fluorescence microscope, and images were captured using a Lumenera CCD camera and in-house developed software. PI and NAM fluorescence were detected using, respectively, U-MWG2 (green long pass: 510-550 nm) and U-MNUA2 (UV band pass, 330-385 nm) filter cubes (Olympus).
# bone marrow cells = test: NAM/PI staining of bone marrow derived cells; type: cell-based, murine; settings: bone marrow cells 93% viable; 10 μL NAM (100 μg pr. mL DMSO) to 90 μL cells
# Procedure: Materials and Methods. The bone marrow cells were harvested aseptically in the laminarflow hood. Briefly, bilateral tibia and femur were aseptically removed, freed of surrounding soft tissue, and placed in a petri dish with 10 mL 70% ethanol. After 2 minutes they were transferred to ice cold PBS. The bone marrow cavity was then flushed with 5 ml cold PBS using a 5-ml syringe with a 27-gauge needle attached, and the cells were collected from each bone. The cells were centrifuged at 300 g for 10 min, the supernatant was discarded, and cells were washed twice. […] 90 μL bone marrow cellss (cell density 1.7×10^6, 93% viable determined using the NC-100 NucleoCounter system following the manufacturer's (ChemoMetec A/S) protocol) were added 10 μL NAM (N-(9-acridinyl)maleimide, Sigma, #01665, CAS no. 49759-20-8) dissolved in DMSO (100 μg NAM pr. mL DMSO) and mixed by pipetting. […] The cells were investigated using an Olympus IX50 fluorescence microscope, and images were captured using a Lumenera CCD camera and in-house developed software. PI and NAM fluorescence were detected using, respectively, U-MWG2 (green long pass: 510-550 nm) and U-MNUA2 (UV band pass, 330-385 nm) filter cubes (Olympus).
# Jurkat (JM) cells = test: Staining of proliferating Jurkat cells with labelling agent and propidium iodide, fluorescence microscopy; type: cell-based; settings: 10 μL agent (100 μg pr. mL DMSO) added to 90 μL cells, only exception PI positive cells
# Procedure: (§1) Materials and Methods. Jurkat (JM) cells were grown at 37° C. in a humidified air atmosphere with 5% CO2 in RPMI (Invitrogen, #61870) supplemented with 10% heat-inactivated fetal bovine serum (Invitrogen, #10108-165). 90 μL proliferating Jurkat cells (cell density 1.2×10^6, 99% viable determined using the NC-100 NucleoCounter system following the manufacturer's (ChemoMetec A/S) protocol) were added 10 μL NAM (N-(9-acridinyl)maleimide, Sigma, #01665, CAS no. 49759-20-8) dissolved in DMSO (100 μg NAM pr. mL DMSO) and mixed by pipetting. Cells were loaded into a NucleoCassette, containing the DNA stain propidium iodide (PI). The cells were investigated using an Olympus IX50 fluorescence microscope, and images were captured using a Lumenera CCD camera and in-house developed software. PI and NAM fluorescence were detected using, respectively, U-MWG2 (green long pass: 510-550 nm) and U-MNUA2 (UV band pass, 330-385 nm) filter cubes (Olympus).
# as §1, with “1.0×10^6,” for “1.2×10^6,”, “(ChemoMetec)” for “(ChemoMetec A/S)”, “CPM (7-diethylamino-3-[4′-maleimidylphenyl]-4-methylcoumarin, Chemodex Ltd.,” for “NAM (N-(9-acridinyl)maleimide, Sigma, #01665,”, “76877-33-3)” for “49759-20-8)”, “CPM” for “NAM”
# as §1, with “1.1×10^6, 98%” for “1.2×10^6, 99%”, “(ChemoMetec)” for “(ChemoMetec A/S)”, “PM (N-(1-Pyrenyl)maleimide, Sigma P7908” for “NAM (N-(9-acridinyl)maleimide, Sigma, #01665,”, “42189-56-0)” for “49759-20-8)”, “PM” for “NAM”, “Cells were loaded into a NucleoCassette, containing the DNA stain propidium iodide (PI).” left out
# Materials and Methods. […] 90 μL proliferating Jurkat cells (cell density 1.1×10^6, 98% viable determined using the NC-100 NucleoCounter system following the manufacturer's (ChemoMetec) protocol) were added 10 μL CPI (7-diethylamino-3-((4′-(iodoacetyl)amino)phenyl)-4-methylcoumarin, Sigma 78264 CAS no. 76877-34-4) dissolved in DMSO (100 μg CPI pr. mL DMSO) and mixed by pipetting. […] The cells were investigated using an Olympus IX50 fluorescence microscope, and images were captured using a Lumenera CCD camera and in-house developed software. PI and CPI fluorescence were detected using, respectively, U-MWG2 (green long pass: 510-550 nm) and U-MNUA2 (UV band pass, 330-385 nm) filter cubes (Olympus). […]
structure (smiles),measurement,setting,value
"O=C1C=CC(=O)N1c1c2ccccc2nc2ccccc12 [NAM, N-(9-acridinyl)maleimide]",staining of cells versus PI,Drosophila S2 cells,NAM and PI were found to complementary stain S2 cells
same,staining of cells (UV filter) versus PI positive cells,bone marrow cells,nearly all the primary bone marrow cells were stained by NAM
same,staining of cells (UV filter) versus PI positive cells,Jurkat (JM) cells,nearly all cells in the proliferating Jurkat cell culture were stained by NAM
